Experimental data: patent US20150320709A1, “METHODS AND COMPOSITIONS FOR FACILITATING WEIGHT LOSS BY ADMINISTRATION OF THYROID HORMONES” (priority 2011, published 2015)

Experiments:
[1] = system: thyroid hormone receptors; settings: cited from earlier work
[2] = Low thyroid symptoms / clinical status of weight loss program patients on thyroid hormone treatment; assay type: in vivo, human
[3] = Circulating thyroid hormone labs (FT3, FT4, rT3, TSH) in weight loss program patients on thyroid hormone treatment; assay type: in vivo, human
Text: FIG. 1 depicts hormonal responses to a hypocaloric state with subsequent treatment. Note: Time frames and shapes of response curves are approximated. Levels of all four hormones are normal before the diet (Time A). At time between time points B and D, TSH is dropping slightly to signal the thyroid gland to make less thyroid hormone. This drop is the mechanism to decrease metabolism in the hypocaloric state. At point C, free T3 begins to drop as rT3 increases. Also at time point C, different observations have been reported for changes in FT4: in our experience, FT4 also drops as indicated on the graph. In the literature, some report no change, whereas others report an increase in FT4. By the time of the blood sampling (time E), in our experience, patients whose FT3 and FT4 have dropped to the low end of normal (with possible above normal rT3 levels) are those experiencing symptoms of low thyroid. They may have any of the following symptoms: feeling cold, cold hands and feet, elevated diastolic blood pressure secondary to vasoconstriction, fatigue, depression, constipation, hair loss, dry skin, insomnia, as well as others. They have often hit a plateau of weight loss even though they have continued to maintain their hypocaloric diet and exercise program. At point F, we begin treatment with thyroid hormone (for example, T4 with T3, T3 alone, T3 with T2 and T4, or T2 alone. Between points F and G, FT3 and rT3 (and FT4 if T4 was administered) are returning to more normal levels, while TSH plummets, often to undetectable levels. At time point H, symptoms of low thyroid are resolved, the patient has no symptoms of hyperthyroidism, and if rT3 had risen and was treated appropriately, rT3 decreased.
The first patient example is a person, 5′2″, weight 268 lbs, body mass index (BMI) 49 (nl 19-24; overweight 25-29; obesity≧30). Baseline blood pressure was 110/74, blood sugar (BS) was 153 mg/dL 10 days after their first visit. Their medical problems at baseline included obesity, type 2 diabetes mellitus (DM2), high blood pressure (HTN), fatigue, depression, and asthma. Their medications included glipizide 10 mg daily, amitriptyline 50 mg daily, metoprolol 50 mg daily, furosemide 40 mg daily, potassium chloride, lisinopril 10 mg daily, Advair Discus 500/50 twice daily (bid), and montelukast 10 mg daily. They were started on our comprehensive program. Five months after starting their weight loss treatment, they developed symptoms of hypothyroidism with constipation and fatigue. They had lost 28 lbs by this time and was having difficulty losing more weight even though they were eating less than they were before their weight loss treatment began. At the start of treatment, their FT4 was 0.9 ng/dL (nl 0.7-1.48). At the time of their low thyroid symptoms, their FT3 was 2.9 pg/mL (nl 1.71-3.71) and their FT4 was 0.91 ng/dL (nl 0.7-1.48). They were then treated with thyroid hormone (desiccated thyroid with a ratio of T4:T3 of about 4:1) at 60 mg daily for 6 days to acclimate, then increased to 120 mg daily. […] After two years on their weight loss treatment, their weight was 231 lbs. […] We tested for rT3 at this point. Their labs on the 150 mg dose of desiccated thyroid were: rT3 394 pg/mL (nl 90-350), FT3 3.94 pg/mL (nl 1.71-3.71), and FT4 1.24 ng/dL (nl 0.7-1.48). The task of bringing down their rT3 was then addressed. Over a period of a few months, their desiccated thyroid hormone was discontinued and instead the patient was given gradually increasing doses of T3 only, starting at 20 mcg daily and gradually increasing the T3 to 60 mcg bid. Five months after starting on T3 with increasing doses, their weight had dropped to 209 lbs. Their BP was 118/66 mmHg with pulse of 74 on lisinopril 10 mg daily, metoprolol 50 mg bid, and furosemide 40 mg daily. Instead of glipizide, they were taking metformin 500 mg bid. […] Their most recent labs on 60 mcg bid of T3 were FT3 3.8 pg/mL (nl 1.71-3.71), FT4 0.64 ng/dL (nl 0.7-1.48) and rT3 137 pg/mL (nl 90-350). Four months prior to this visit their BS was 125 mg/dl. […]

[4] = Existing thyroid therapy in subjects undergoing a weight loss regimen (general finding); assay type: in vivo; settings: T4 alone or T3:T4 at ratios of less than 1:2
Text: Such T4 based therapy often serves to increase levels of rT3 and decreases levels of circulating T3, thereby undermining attempts to counter hypothyroidism and effect continued weight loss.

[5] = Low thyroid symptoms / clinical status of weight loss program patients on thyroid hormone treatment; assay type: in vivo, human; settings: Patient Example 2; 75 mcg daily, within a few weeks of switch from desiccated thyroid
Protocol: The first patient example is a person, 5′2″, weight 268 lbs, body mass index (BMI) 49 (nl 19-24; overweight 25-29; obesity≧30). Baseline blood pressure was 110/74, blood sugar (BS) was 153 mg/dL 10 days after their first visit. Their medical problems at baseline included obesity, type 2 diabetes mellitus (DM2), high blood pressure (HTN), fatigue, depression, and asthma. Their medications included glipizide 10 mg daily, amitriptyline 50 mg daily, metoprolol 50 mg daily, furosemide 40 mg daily, potassium chloride, lisinopril 10 mg daily, Advair Discus 500/50 twice daily (bid), and montelukast 10 mg daily. They were started on our comprehensive program. Five months after starting their weight loss treatment, they developed symptoms of hypothyroidism with constipation and fatigue. They had lost 28 lbs by this time and was having difficulty losing more weight even though they were eating less than they were before their weight loss treatment began. At the start of treatment, their FT4 was 0.9 ng/dL (nl 0.7-1.48). At the time of their low thyroid symptoms, their FT3 was 2.9 pg/mL (nl 1.71-3.71) and their FT4 was 0.91 ng/dL (nl 0.7-1.48). They were then treated with thyroid hormone (desiccated thyroid with a ratio of T4:T3 of about 4:1) at 60 mg daily for 6 days to acclimate, then increased to 120 mg daily. […] After two years on their weight loss treatment, their weight was 231 lbs. […] We tested for rT3 at this point. Their labs on the 150 mg dose of desiccated thyroid were: rT3 394 pg/mL (nl 90-350), FT3 3.94 pg/mL (nl 1.71-3.71), and FT4 1.24 ng/dL (nl 0.7-1.48). The task of bringing down their rT3 was then addressed. Over a period of a few months, their desiccated thyroid hormone was discontinued and instead the patient was given gradually increasing doses of T3 only, starting at 20 mcg daily and gradually increasing the T3 to 60 mcg bid. Five months after starting on T3 with increasing doses, their weight had dropped to 209 lbs. Their BP was 118/66 mmHg with pulse of 74 on lisinopril 10 mg daily, metoprolol 50 mg bid, and furosemide 40 mg daily. Instead of glipizide, they were taking metformin 500 mg bid. […] Their most recent labs on 60 mcg bid of T3 were FT3 3.8 pg/mL (nl 1.71-3.71), FT4 0.64 ng/dL (nl 0.7-1.48) and rT3 137 pg/mL (nl 90-350). Four months prior to this visit their BS was 125 mg/dl.
The second patient example is a person, 5′2″, weight 150 lbs, BMI 28 (nl 18.5-24.9; overweight 25-29.9; obesity≧30), with HTN. Their blood pressure was slightly elevated at 148/85 (on lisinopril 5 mg daily). Their medical problems at baseline included history of Hashimoto's thyroiditis, borderline high TSH, elevated lipids, and HTN. Their medications were lisinopril 5 mg daily, estradiol 2 mg daily, and rofecoxib 25 mg daily for osteoarthritis of their large joints. […]

## N[C@@H](Cc1ccc(Oc2cc(I)c(O)c(I)c2)c(I)c1)C(=O)O [rT3, reverse triiodothyronine]
[1]
  action on thyroid hormone receptors: does not stimulate thyroid hormone receptors but instead binds to these receptors

## N[C@@H](Cc1cc(I)c(Oc2ccc(O)cc2)c(I)c1)C(=O)O [T2, 3,5-diiodo-1-thyronine]
[2]; Patient Example 3, T2 2 mcg SR q AM added, T3 25 mcg b.i.d., 10 days after start of T2
  reported symptoms: surfaces of their body were now warm and not numb, and that their skin and hair had improved
[2]; Patient Example 3, T2 2 mcg SR q AM added, T3 decreased to 25 mcg b.i.d., two days later
  energy levels: energy levels were normalized
[2]; Patient Example 3, over six weeks after starting the T2 regimen
  low thyroid symptoms: not suffering from any symptoms of low thyroid
[2]; Patient Example 4, T2 2 mcg q AM and 8-10 hours later added, T3 reduced to 50 mcg twice daily, nearly two months
  reported symptoms: no complaints of fatigue and reported that only a slight coldness persisted
[3]; Patient Example 3, T2 2 mcg SR q AM added, T3 25 mcg b.i.d., normal range 0.93-1.7
  FT4: 0.23 ng/dL
[3]; Patient Example 3, T2 2 mcg SR q AM added, T3 25 mcg b.i.d., normal range 2.2-4.0
  FT3: 3.2 pg/mL
[3]; Patient Example 3, T2 2 mcg SR q AM added, T3 25 mcg b.i.d., normal range 90-350
  rT3: 69 pg/mL
[3]; Patient Example 4, T2 2 mcg twice daily added, T3 50 mcg twice daily, normal range 2.2-4.0
  FT3: 2.7 pg/mL

## N[C@@H](Cc1cc(I)c(Oc2cc(I)c(O)c(I)c2)c(I)c1)C(=O)O [T4, (2S)-2-amino-3-[4-(4-hydroxy-3,5-diiododophenoxy)-3,5-diiodophenyl]propanoic acid]
[4]
  correction of thyroid abnormalities and/or hypothyroidism so as to permit continuing weight loss: fails to correct thyroid abnormalities and/or hypothyroidism
[3]; Patient Example 2, 75 mcg daily
  TSH: 0.91 uIU/mL
[3]; Patient Example 2, 75 mcg daily, nl 0.93-1.70
  FT4: 1.07 ng/dL
[3]; Patient Example 2, 75 mcg daily, nl 2.2-4.0
  FT3: 2.3 pg/mL
[5]
  low thyroid symptoms: began to feel tired, cold, and depressed and developed constipation and hair loss
